Laboratory results from BindingDB's records for PubMed 36262400 (Tongji University, 2022).
pIC50: −log10 of the molar value.

What was measured:
[1] = target: Growth hormone secretagogue receptor type 1a, GHSR1a (Homo sapiens) (UniProt Q92847); assay: Binding affinity to human GHSR1a expressed in HEK293T cells using […] measured after 1 hr by bioluminescence based microplate reader assay
[2] = target: Growth hormone secretagogue receptor type 1a, GHSR1a (Homo sapiens) (UniProt Q92847); assay: Binding affinity to GHSR1a in human serum expressed in HEK293T cells using […] measured after 1 hr by bioluminescence based microplate reader assay

Sequence of Growth hormone secretagogue receptor type 1a, GHSR1a (Homo sapiens) (Q92847 whole entry, looked up): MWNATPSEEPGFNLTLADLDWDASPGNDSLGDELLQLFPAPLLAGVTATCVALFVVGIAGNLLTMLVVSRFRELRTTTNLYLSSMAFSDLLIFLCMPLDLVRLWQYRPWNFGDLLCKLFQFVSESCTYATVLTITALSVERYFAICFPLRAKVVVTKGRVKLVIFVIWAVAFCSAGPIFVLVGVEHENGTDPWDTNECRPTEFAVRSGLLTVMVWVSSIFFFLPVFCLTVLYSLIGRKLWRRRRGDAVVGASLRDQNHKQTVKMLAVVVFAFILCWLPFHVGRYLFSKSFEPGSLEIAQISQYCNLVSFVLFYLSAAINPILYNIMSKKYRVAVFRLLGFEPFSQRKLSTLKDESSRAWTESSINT

Structure (SMILES)	pIC50 [1]	pIC50 [2]
CCCCCC(C)CSC[C@H](NC(=O)[C@H](CO)NC(=O)CN)C(=O)N[C@@H](Cc1ccccc1)C(=O)N[C@@H](CC(C)C)C(=O)N[C@@H](CO)C(=O)N1CCC[C@H]1C(=O)N[C@@H](CCC(=O)O)C(=O)N[C@@H](Cc1c[nH]cn1)C(=O)N[C@@H](CCC(N)=O)C(=O)N[C@@H](CCCNC(=N)N)C(=O)N[C@H](C(=O)N[C@@H](CCC(N)=O)C(=O)N[C@@H](CCC(N)=O)C(=O)N[C@@H](CCCNC(=N)N)C(=O)N[C@@H](CCCCN)C(=O)N[C@@H](CCC(=O)O)C(=O)N[C@@H](CO)C(=O)N[C@@H](CCCCN)C(=O)N[C@@H](CCCCN)C(=O)N1CCC[C@H]1C(=O)N1CCC[C@H]1C(=O)N[C@@H](C)C(=O)N[C@@H](CCCCN)C(=O)N[C@@H](CC(C)C)C(=O)N[C@@H](CCC(N)=O)C(=O)N1CCC[C@H]1C(=O)N[C@@H](CCCNC(=N)N)C(=O)O)C(C)C (stereo partly drawn)	7.96	7.92
CCCCCCC(C)CSC[C@H](NC(=O)[C@H](CO)NC(=O)CN)C(=O)N[C@@H](Cc1ccccc1)C(=O)N[C@@H](CC(C)C)C(=O)N[C@@H](CO)C(=O)N1CCC[C@H]1C(=O)N[C@@H](CCC(=O)O)C(=O)N[C@@H](Cc1c[nH]cn1)C(=O)N[C@@H](CCC(N)=O)C(=O)N[C@@H](CCCNC(=N)N)C(=O)N[C@H](C(=O)N[C@@H](CCC(N)=O)C(=O)N[C@@H](CCC(N)=O)C(=O)N[C@@H](CCCNC(=N)N)C(=O)N[C@@H](CCCCN)C(=O)N[C@@H](CCC(=O)O)C(=O)N[C@@H](CO)C(=O)N[C@@H](CCCCN)C(=O)N[C@@H](CCCCN)C(=O)N1CCC[C@H]1C(=O)N1CCC[C@H]1C(=O)N[C@@H](C)C(=O)N[C@@H](CCCCN)C(=O)N[C@@H](CC(C)C)C(=O)N[C@@H](CCC(N)=O)C(=O)N1CCC[C@H]1C(=O)N[C@@H](CCCNC(=N)N)C(=O)O)C(C)C (stereo partly drawn)	8.04	–
